Here are results for one molecule from article PMC9909988, “Procoxacin bidirectionally inhibits osteoblastic and osteoclastic activity in bone and suppresses bone metastasis of prostate cancer” (Journal of Experimental & Clinical Cancer Research : CR, 2023).

For this assay, the target named is T1, 14–3-3ζ (Homo sapiens, UniProt P63104).
T1 construct: gene YWHAZ
Briefly: SPR (Biacore T200, […]-3ζ ab87361 captured on NTA chip); supported by Pro-conjugated magnetic bead pull-down from C4-2B lysate. Format: binding.

Structures are written as SMILES. pKd: −log10 of the molar value.

T1 sequence (P63104 whole entry): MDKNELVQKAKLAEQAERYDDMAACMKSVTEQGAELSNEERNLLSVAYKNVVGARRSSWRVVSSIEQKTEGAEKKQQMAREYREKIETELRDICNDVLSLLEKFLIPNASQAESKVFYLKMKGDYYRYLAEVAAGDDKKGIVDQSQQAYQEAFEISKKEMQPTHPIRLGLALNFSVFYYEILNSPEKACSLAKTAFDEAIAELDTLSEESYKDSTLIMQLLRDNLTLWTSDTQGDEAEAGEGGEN

`CC[C@@H](C(=O)[C@@H](C)[C@@H](O)[C@H](C)[C@@H]1O[C@@H]([C@@H](CC)C(=O)O)CC[C@@H]1C)[C@H]1O[C@]2(C=C[C@@H](O)[C@]3(CC[C@@](C)([C@H]4CC[C@](O)(CC)[C@H](C)O4)O3)O2)[C@H](C)C[C@@H]1C` [Pro, Procoxacin] showed a pKd of 5.71.
